The values that follow come from US9969724B2, “Factor IXa inhibitors” (Merck Sharp & Dohme Corp., priority 2014, dated 2018).

Molecules are shown by their SMILES.

Sequence of human factor IXa (P00740 227-461): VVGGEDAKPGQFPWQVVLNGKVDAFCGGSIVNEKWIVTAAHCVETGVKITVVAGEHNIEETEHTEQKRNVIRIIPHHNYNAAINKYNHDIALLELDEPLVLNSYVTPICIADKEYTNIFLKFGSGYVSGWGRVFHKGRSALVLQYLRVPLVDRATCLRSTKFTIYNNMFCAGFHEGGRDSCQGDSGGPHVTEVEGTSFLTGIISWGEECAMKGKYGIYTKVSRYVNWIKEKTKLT
Sequence of human factor IXa (P00740 47-191 partner): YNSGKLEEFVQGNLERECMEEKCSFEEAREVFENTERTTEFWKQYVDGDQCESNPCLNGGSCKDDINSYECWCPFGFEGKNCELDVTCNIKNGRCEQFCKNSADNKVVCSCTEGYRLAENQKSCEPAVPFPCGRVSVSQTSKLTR

The experiment has as its target human factor IXa (Homo sapiens (Human), UniProt P00740). As to the kind of experiment: Determination of Inhibitory Activity Against Factor IXa. Format: biochemical. The note with it: Factor IXa enzyme assay human; read-out: FIXa IC50. How it is done:
Inhibitory activity against factor IXa was tested using the substrate SPECTROFLUOR FIXa (american diagnostica inc.; 500 West Avenue, Stamford, Conn. 06902 USA; Pr. No. 299F) and human factor IXa (american diagnostica inc.; Pr. No. 449b). Test substances were dissolved in buffer A (50 mM α,α,α-tris(hydroxymethyl) methylamine (Tris), 100 mM NaCl, 5 mM CaCl2, 15% (v/v) ethylene glycol, pH 8.0) were mixed with factor IXa (0.1 μg/ml final concentration). The enzyme reaction was started by addition of SPECTROFLUOR FIXa (100 μM final concentration). After incubation for 60 minutes at room temperature, the reaction was stopped by the addition of 20% (v/v) acetic acid solution, and then the fluorescence value was measured (Excitation Wavelength: 355 nm, Emission Wavelength; 460 nm) in a microtiter plate reader (ARVO 1420 Multilabel Counter; PerkinElmer).
The IC50 was calculated from a dilution series of the test substance with the aid of the software, Symyx Assay Explorer (Symyx Technologies, Inc.).
With `Cc1ncn(-c2cnc(C(=O)N[C@@H]3CCN(c4ncc(Cl)c5c(N)noc45)C3)c(Cl)c2)n1` [Example 52, (R)—N-(1-(3-Amino-4-chloroisoxazolo[5,4-c]pyridin-7-yl)pyrrolidin-3-yl)-3-chloro-5-(3-methyl-1H-1,2,4-triazol-1-yl)picolinamide], the IC50 (as a rule, the point on the concentration scale where inhibition reaches its midpoint) lay within 100 to 1000 nM.

Take `Nc1noc2c(N3CC[C@@H](NC(=O)c4ccc(-n5cnc(CO)n5)cc4Cl)C3)cc(Cl)cc12` [Example 16, (R)—N-(1-(3-Amino-5-chlorobenzo[d]isoxazol-7-yl)pyrrolidin-3-yl)-2-chloro-4-(3-(hydroxymethyl)-1H-1,2,4-triazol-1-yl)benzamide]: the IC50 is at most 100 nM. The same measure for `Nc1noc2c(N3CC[C@@H](NC(=O)c4ccc(-n5cnn(CC(F)(F)F)c5=O)cc4Cl)C3)ncc(Cl)c12` [Example 50, (R)—N-(1-(3-Amino-4-chloroisoxazolo[5,4-c]pyridin-7-yl)pyrrolidin-3-yl)-2-chloro-4-(5-oxo-1-(2,2,2-trifluoroethyl)-1,5-dihydro-4H-1,2,4-triazol-4-yl)benzamide]: at most 100 nM; for `Cc1ncn(-c2ccc(C(=O)N[C@@H]3CCN(c4nc(C(F)F)cc5c(N)noc45)C3)c(Cl)c2)n1` [Example 39, (R)—N-(1-(3-Amino-5-(difluoromethyl)isoxazolo[5,4-c]pyridin-7-yl)pyrrolidin-3-yl)-2-chloro-4-(3-methyl-1H-1,2,4-triazol-1-yl)benzamide]: 100 to 1000 nM. Regarding `Nc1noc2c(N3CC[C@@H](NC(=O)c4ccc(-n5cnnc5C(F)(F)F)cc4Cl)C3)ncc(Cl)c12` [Example 43, (R)—N-(1-(3-Amino-4-chloroisoxazolo[5,4-c]pyridin-7-yl)pyrrolidin-3-yl)-2-chloro-4-(3-(trifluoromethyl)-4H-1,2,4-triazol-4-yl)benzamide], the IC50 was at most 100 nM. The same measure for `Nc1noc2c(N3CC[C@@H](NC(=O)c4ccc(-n5cnnc5)cc4)C3)ncc(Cl)c12` [Example 36, (R)—N-(1-(3-Amino-4-chloroisoxazolo[5,4-c]pyridin-7-yl)pyrrolidin-3-yl)-4-(4H-1,2,4-triazol-4-yl)benzamide]: at most 100 nM.

Regarding `Nc1noc2c(N3CC[C@@H](NC(=O)c4ccc(-n5cnc(CCO)c5)cc4Cl)C3)ncc(Cl)c12` [Example 27, (R)—N-(1-(3-Amino-4-chloroisoxazolo[5,4-c]pyridin-7-yl)pyrrolidin-3-yl)-2-chloro-4-(4-(2-hydroxyethyl)-1H-imidazol-1-yl)benzamide], the IC50 was at most 100 nM. As for `Nc1noc2c(N3CC[C@@H](NC(=O)c4ccc(-n5cn[nH]c5=O)cc4Cl)C3)ncc(Cl)c12` [Example 46, (R)—N-(1-(3-Amino-4-chloroisoxazolo[5,4-c]pyridin-7-yl)pyrrolidin-3-yl)-2-chloro-4-(5-oxo-1,5-dihydro-4H-1,2,4-triazol-4-yl)benzamide], the half-maximal inhibitory concentration (IC50) was at most 100 nM. As to `Cn1nc(-c2ccc(C(=O)N[C@@H]3CCN(c4ncc(Cl)c5c(N)noc45)C3)c(Cl)c2)ccc1=O` [Example 40, (R)—N-(1-(3-Amino-4-chloroisoxazolo[5,4-c]pyridin-7-yl)pyrrolidin-3-yl)-2-chloro-4-(1-methyl-6-oxo-1,6-dihydropyridazin-3-yl)benzamide], the IC50 was at most 100 nM. For the compound `Cc1cc2c(N)noc2c(N2CC[C@@H](NC(=O)c3ccc(-n4cc(CCO)nn4)cc3Cl)C2)n1` [Example 42, (R)—N-(1-(3-Amino-5-methylisoxazolo[5,4-c]pyridin-7-yl)pyrrolidin-3-yl)-2-chloro-4-(4-(2-hydroxyethyl)-1H-1,2,3-triazol-1-yl)benzamide], the IC50 was at most 100 nM. The same measure for `Nc1noc2c(N3CC[C@@H](NC(=O)c4ccc(-n5cnnc5)cc4Cl)C3)cc(Cl)c(Cl)c12` [Example 14, (R)—N-(1-(3-Amino-4,5-dichlorobenzo[d]isoxazol-7-yl)pyrrolidin-3-yl)-2-chloro-4-(4H-1,2,4-triazol-4-yl)benzamide]: at most 100 nM. On to `Cc1ncn(-c2ccc(C(=O)N[C@@H]3CCN(c4cc(C#N)cc5c(N)noc45)C3)c(Cl)c2)n1` [Example 34, (R)—N-(1-(3-Amino-5-cyanobenzo[d]isoxazol-7-yl)pyrrolidin-3-yl)-2-chloro-4-(3-methyl-1H-1,2,4-triazol-1-yl)benzamide], for which the IC50 was at most 100 nM.

Take `Nc1noc2c(N3CC[C@@H](NC(=O)c4ccc(-n5cnnc5)cc4Cl)C3)ccc(F)c12` [Example 13, (R)—N-(1-(3-Amino-4-fluorobenzo[d]isoxazol-7-yl)pyrrolidin-3-yl)-2-chloro-4-(4H-1,2,4-triazol-4-yl)benzamide]: the concentration for half-maximal inhibition (IC50) lay in the range of 100 to 1000 nM. In the case of `Nc1noc2c(N3CC[C@@H](NC(=O)c4ccc(-n5cnnc5)cc4Cl)C3)ccc(Cl)c12` [Example 9, (R)—N-(1-(3-Amino-4-chlorobenzo[d]isoxazol-7-yl)pyrrolidin-3-yl)-2-chloro-4-(4H-1,2,4-triazol-4-yl)benzamide] it was at most 100 nM. In the case of `Cc1ncn(-c2ccc(C(=O)N[C@@H]3CCN(c4nc(C#N)cc5c(N)noc45)C3)c(Cl)c2)n1` [Example 41, (R)—N-(1-(3-Amino-5-cyanoisoxazolo[5,4-c]pyridin-7-yl)pyrrolidin-3-yl)-2-chloro-4-(3-methyl-1H-1,2,4-triazol-1-yl)benzamide] it was at most 100 nM; in that of `Nc1noc2c(N3CC[C@@H](NC(=O)c4ccc(-c5cnccn5)cc4Cl)C3)ncc(Cl)c12` [Example 33, (R)—N-(1-(3-Amino-4-chloroisoxazolo[5,4-c]pyridin-7-yl)pyrrolidin-3-yl)-2-chloro-4-(pyrazin-2-yl)benzamide], at most 100 nM; in that of `Nc1noc2c(N3CC[C@@H](NC(=O)c4ccc(-n5cc(CCO)cn5)cc4Cl)C3)ccc(Cl)c12` [Example 26, (R)—N-(1-(3-Amino-4-chlorobenzo[d]isoxazol-7-yl)pyrrolidin-3-yl)-2-chloro-4-(4-(2-hydroxyethyl)-1H-pyrazol-1-yl)benzamide], at most 100 nM. For the compound `Nc1noc2c(N3CCC(NC(=O)c4ccc(-n5cnnc5)cc4Cl)C3)nccc12` (stereo not shown) [Example 5, N-(1-(3-Aminoisoxazolo[5,4-c]pyridin-7-yl)pyrrolidin-3-yl)-2-chloro-4-(4H-1,2,4-triazol-4-yl)benzamide], the IC50 is at most 100 nM. Turning to `Nc1noc2c(N3CC[C@@H](NC(=O)c4ccc(-n5cnc6ncncc65)cc4Cl)C3)ncc(Cl)c12` [Example 51, (R)—N-(1-(3-Amino-4-chloroisoxazolo[5,4-c]pyridin-7-yl)pyrrolidin-3-yl)-2-chloro-4-(7H-purin-7-yl)benzamide], the IC50 is at most 100 nM. For the compound `Nc1noc2c(N3CC[C@@H](NC(=O)c4ccc(-n5cnnc5C(F)F)cc4Cl)C3)ncc(Cl)c12` [Example 28, (R)—N-(1-(3-Amino-4-chloroisoxazolo[5,4-c]pyridin-7-yl)pyrrolidin-3-yl)-2-chloro-4-(3-(difluoromethyl)-4H-1,2,4-triazol-4-yl)benzamide], the IC50 is at most 100 nM. On to `Nc1noc2c(N3CC[C@@H](NC(=O)c4ccc(-n5cnc6ccccc65)cc4Cl)C3)ncc(Cl)c12` [Example 29, (R)—N-(1-(3-Amino-4-chloroisoxazolo[5,4-c]pyridin-7-yl)pyrrolidin-3-yl)-4-(1H-benzo[d]imidazol-1-yl)-2-chlorobenzamide], for which the IC50 is at most 100 nM. For the compound `Nc1noc2c(N3CCC(NC(=O)c4ccc(-n5cnnc5)cc4Cl)C3)cccc12` (stereo not shown) [Example 1, N-(1-(3-Aminobenzo[d]isoxazol-7-yl)pyrrolidin-3-yl)-2-chloro-4-(4H-1,2,4-triazol-4-yl)benzamide], the IC50 was at most 100 nM.
